From ChEMBL document CHEMBL1157539, “Thousands of chemical starting points for antimalarial lead identification” (Nature, 2010)

Test system: Plasmodium falciparum
Experiment: GSK_TCMDC: Inhibition of Plasmodium falciparum 3D7 in whole erythrocytes, using parasite LDH activity as an index of growth.
Type: functional, organism-based
Settings: Plasmodium falciparum, 3D7

Compound `COc1cc(-c2ccccc2)ccc1C(=O)Nc1ccc2c(c1)N(C)CCC2` has an XC50 of 325 nM.

Work on `CCc1cc2c3c(N)nc(N)nc3ccc2n1C(CC)CC` yielded an XC50 of 63.7 nM.

Work on `COc1ccc2nccc([C@@H](O)CN3CCC(NC(=O)C(c4cc5ccccc5o4)N4CCN(c5ccc(F)cc5)CC4)CC3)c2c1` (stereo not given in full) yielded an XC50 of 197 nM.

For `COc1ccc(CNCc2ccc(-c3ccc(-c4nc5cc(C(F)(F)F)ccc5[nH]4)s3)cc2)cc1`, the XC50 was 174 nM.

In the case of `Oc1ccc(CN2CCC(NCc3cccc4ccccc34)CC2)cc1`, the XC50 is reported as 1200 nM.

`COc1ccc(C2CC(c3ccccc3)=NN2C(=O)c2ccc(Br)o2)cc1` (stereo not given) was tested, and the XC50 was 323 nM.

In the case of `CC[C@H]1CN2CC[C@H]1C[C@H]2[C@H](O)c1cc(-c2ccc(Cl)c(Cl)c2)nc2ccc(OC)cc12`, the XC50 is reported as 115 nM.

For `CCCC1N=C(N)N=C(N)N1c1cccc([N+](=O)[O-])c1` (stereo not given), the XC50 was 760 nM.

Compound `Cn1cc(CN2CCCC(COC(c3ccccc3)c3ccccc3)C2)cn1` (stereo not given) has an XC50 of 775 nM.

With `COc1ccc2nccc([C@@H](O)CN3CCC(NC(=O)/C=C/c4cc(F)cc(NC(C)=O)c4)CC3)c2c1` the XC50 was 183 nM.

`O=C(NCCc1ccc(Cl)c(Cl)c1)[C@@H]1CCCN1C(=O)c1ccc(O)c(-c2cccc(C(F)(F)F)c2)c1` was tested, and the XC50 was 825 nM.

In the case of `O=c1cc(NCCCNCc2cc(Cl)c(Cl)cc2Cl)[nH]c2ccccc12`, the XC50 is reported as 966 nM.

Compound `COc1ccc2ncc(F)c(CCN3CC[C@@H](CNCc4cc(C)c5c(c4)OCCO5)C3)c2n1` has an XC50 of 890 nM.

In the case of `COc1ccc(CCN(Cc2cccs2)C(=O)c2cc3sccc3n2C)cc1OC`, the XC50 is reported as 349 nM.

For `CCCC1(NC[C@@H](O)[C@H](Cc2ccccc2)NC(=O)c2cc(NCC)cc(N3CCCCS3(=O)=O)c2)CCC1`, the XC50 was 720 nM.

For `OCCN1CCN(C(=S)NC2CCCCC2)CC1`, the XC50 was 1100 nM.

Work on `O=C(/C=C/c1ccc(Cl)cc1)NCCCCCN1CCC(C(=O)Nc2ccc(Cl)c(Cl)c2)CC1` yielded an XC50 of 766 nM.

`Nc1nc(N)c2c(ccc3c2ccn3CCCF)n1` gave an XC50 of 149 nM.

`N#Cc1cc([N+](=O)[O-])ccc1-n1nc(C(N)=O)n(Cc2cccc(F)c2)c1=S` was tested, and the XC50 was 721 nM.

Work on `CCNc1cc(C(=O)N[C@@H](Cc2ccc(F)c(F)c2)[C@H](O)CNCc2cccc(OC)c2)cc(N2CCCCS2(=O)=O)c1` yielded an XC50 of 749 nM.

With `COc1cccc(C2CCN(CCN3CCC(NC(=O)c4ccc(-c5ccc(C(F)(F)F)cc5)cc4)CC3)CC2)c1` the XC50 was 203 nM.

For `CCCCCN1CCCN(Cc2cccc(NC(=O)c3ccc4ccccc4c3)c2)CC1`, the XC50 was 1220 nM.

`CCc1ccccc1NC(=O)CN1CCN(c2ncnc3scc(-c4ccc(F)cc4)c23)CC1` was tested, and the XC50 was 702 nM.

For `O=C(/C=C/c1c(Cl)cccc1Cl)NC1CCC(CN2CCC(Cc3cc4ccccc4[nH]3)CC2)CC1` (stereo not given), the XC50 was 975 nM.

`Cc1ccc(C(=O)Nc2ccc(Nc3ccnc4cc(-c5ccncc5)ccc34)cc2O)cc1` was tested, and the XC50 was 929 nM.

Work on `CN(C)CC(=O)N(Cc1ccc(Cl)c(Cl)c1)Cc1csc(-c2ccc(CNCc3ccccc3)cc2)n1` yielded an XC50 of 1050 nM.

In the case of `Cc1ccc(C(=O)N2CCN(Cc3nccs3)CC2)cc1`, the XC50 is reported as 1010 nM.

Compound `COc1ccc2nc(NC(N)=NC(=O)Nc3ccccc3)nc(C)c2c1` has an XC50 of 1280 nM.

`COc1ccc(-c2ccc(NC(=O)c3cccs3)cc2)cc1CN1CCCN(C)CC1` was tested, and the XC50 was 964 nM.

For `COc1ccccc1N1CCN(CCCCNC(=O)c2ccc(NC(=O)c3cc4ccccc4o3)cc2)CC1`, the XC50 was 978 nM.

With `CNCCNCc1cccc(-c2ccc(-c3nc4cc(C(F)(F)F)ccc4[nH]3)s2)c1` the XC50 was 823 nM.

Compound `O=C(Nc1ccc(Oc2ccccc2)cc1)N[C@H]1CCN(Cc2ccc(OCCCN3CCCCC3)cc2)C1` has an XC50 of 179 nM.

Compound `COc1cccc(NC(=O)NC2CCN(CCCCCNC(=O)/C=C/c3ccc(Cl)c(Cl)c3)CC2)c1` has an XC50 of 777 nM.

`CC(C)(C)NC(=O)C(c1ccc(F)cc1)N(C(=O)c1ccc(CN2CCOCC2)o1)c1ccc(C2CCCCC2)cc1` (stereo not given) was tested, and the XC50 was 925 nM.

`Cc1[nH]c(C)c(-c2ccc(CCc3ccc(C(F)(F)F)cc3)nc2)c(=O)c1Cl` showed an XC50 of 88.1 nM.

`Cc1nc(C)c(-c2ccc(Oc3ccc(Cl)cc3Cl)cc2)c(O)c1Br` gave an XC50 of 297 nM.

`CC(C)(C)c1ccccc1OC(=O)c1ccccc1` was tested, and the XC50 was 740 nM.

For `COc1cc(C(=O)N2COCC(CCCN3CCC(N4CCCC4)CC3)(c3ccc(Cl)c(Cl)c3)C2)cc(OC)c1OC` (stereo not given), the XC50 was 785 nM.

`O=C(NCCCCN1CCC(c2ccc3ccccc3c2O)CC1)c1ccc(-c2ccc(Cl)cc2)cc1` gave an XC50 of 181 nM.

Compound `Cc1ccccc1C1=CCN(CCCN2c3ccccc3Sc3ccc(Cl)cc32)CC1` has an XC50 of 871 nM.

`CCCN(CCC)CC(O)COc1ccccc1C(=O)Nc1ccccc1` (stereo not given) gave an XC50 of 799 nM.

Work on `Cc1cccc2nc(-c3cccc(-c4cccc(CN5CCN(c6ccncc6)CC5)c4)c3)[nH]c12` yielded an XC50 of 200 nM.

With `O=C(Nc1cccc(C(F)(F)F)c1)c1cccc(S(=O)(=O)NCC2CCCN(CC3CCCCC3)C2)c1` (stereo not given) the XC50 was 880 nM.

In the case of `COc1ccc([N+](=O)[O-])cc1N(Cc1ccccc1-c1ccccc1)S(=O)(=O)c1ccc(C(F)(F)F)cc1[N+](=O)[O-]`, the XC50 is reported as 1050 nM.

`CC(C)C[C@H](NC(=O)c1ccc(F)cc1)C(=O)N[C@H](/C=N/NC(=O)c1ccccc1)CCc1ccccc1` showed an XC50 of 812 nM.

`CC(C)(c1ccccc1)c1ccc(O)c(CN2CCOCC2)c1` gave an XC50 of 984 nM.

Work on `Oc1c(C(Nc2nc3ccccc3s2)c2ccc(OC(F)F)cc2)ccc2cccnc12` (stereo not given) yielded an XC50 of 571 nM.

`COc1cccc2cc(C(=O)N[C@@H](CC(C)C)C(=O)N[C@H](/C=N/NC(=O)OC(C)(C)C)CC(=O)OC(C)(C)C)oc12` gave an XC50 of 403 nM.

For `N#Cc1ccc(N2CCN(Cc3ccc(-c4ccc(-c5nc6cc(F)ccc6[nH]5)s4)cc3)CC2)nc1`, the XC50 was 854 nM.

`CCC(=O)NC(c1ccco1)c1cc(Cl)c2cccnc2c1O` (stereo not given) was tested, and the XC50 was 875 nM.

In the case of `CNC(=O)c1nc(-c2ccccc2)[nH]c1NC(C)=O`, the XC50 is reported as 152 nM.

For `Cc1cccc2nc(-c3ccc(-c4cccc(NC(=O)Nc5cccc(C#N)c5)c4)cc3)[nH]c12`, the XC50 was 544 nM.

For `O=C(CSc1nn(-c2ccccc2)c(=S)s1)c1c[nH]c2ccccc12`, the XC50 was 1090 nM.

For `CO/C(=C\C=C\c1cc2cc(Cl)c(Cl)cc2[nH]1)C(=O)NCCCN1CCCC[C@@H]1C`, the XC50 was 755 nM.

Compound `O=C1Nc2cccc3c2C1(CCCCN1CC=C(c2c[nH]c4ncccc24)CC1)CCC3` (stereo not given) has an XC50 of 395 nM.

In the case of `N#Cc1ccc(N(CCOc2ccc3c(c2)CCC(=O)N3)Cc2ccccc2C(F)(F)F)cc1C(F)(F)F`, the XC50 is reported as 763 nM.

Compound `CSc1ccccc1NC(=S)NC1CCN(CCCCCNC(=O)/C=C/c2ccc(Cl)c(Cl)c2)CC1` has an XC50 of 778 nM.

With `CCCc1cc(O)c2c3c(c(=O)oc2c1)CN(C)CC3` the XC50 was 873 nM.

Work on `CCC[C@@H]([C@@H](CC(C)C)C(=O)N[C@H](C(=O)Nc1nccs1)C(C)(C)SCCNC(=O)OCC)N(O)C=O` yielded an XC50 of 173 nM.

Work on `C=CCC(C)n1ncc2c3c(N)nc(N)nc3ccc21` (stereo not given) yielded an XC50 of 50 nM.

`Cc1cccc(-c2nn(-c3ccccc3)c3[nH]c(=O)c(CNC4CCCC4)cc23)c1` was tested, and the XC50 was 759 nM.

`CNCCNCc1ccc(-c2ccc(-c3nc4cc(F)ccc4[nH]3)cc2)cc1` showed an XC50 of 387 nM.

`CCCNCc1ccc(-c2ccc(CNC3Cc4ccccc4C3)cc2)nc1` gave an XC50 of 848 nM.

Compound `COc1cc(-c2nc3ccc(N4CCN(C)CC4)cc3[nH]2)cc(OC)c1OC` has an XC50 of 1270 nM.

`COc1cc2nc(N3CCC(c4ccccc4)CC3)nc(NCc3ccc(=O)[nH]c3)c2cc1OC` was tested, and the XC50 was 755 nM.

In the case of `CCCCCCn1c(Sc2ccc(C#N)c([N+](=O)[O-])c2)nnc1-c1cccs1`, the XC50 is reported as 706 nM.

For `O=C(C=Cc1cccc(F)c1)NC1CCC(CCN2CCc3ccc(-c4cnccn4)cc3CC2)CC1` (stereo not given), the XC50 was 454 nM.

For `CN1CCC(Oc2cc(NC(=O)Nc3ccc(-c4ccncc4)c(C(F)(F)F)c3)ccc2Cl)CC1`, the XC50 was 780 nM.

In the case of `CCCOc1cc(Cc2cnc(N)nc2N)cc(OC)c1OC`, the XC50 is reported as 1170 nM.

Work on `CCCC(=O)c1cnc2cc(O)ccc2c1Nc1ccccc1C` yielded an XC50 of 651 nM.
